# Data published in ChEMBL document CHEMBL1201862, “PubChem BioAssay data set” (2004).
# Activity calls are given as the source filed them.
# Legend:
# [1] = target: Prothrombin (Bos taurus, UniProt P00735); test: thrombin inhibition, dose response, biochemical, fluorescence polarization, uHTS hits (AID 602369); type: functional
# [2] = target: 5-hydroxytryptamine receptor 5A (Homo sapiens, UniProt P47898); test: Counterscreen for agonists of OPRM1-OPRD1 heterodimerization: luminescence-based cell-based high throughput dose response assay to identify agonists of 5-hydroxytryptamine (serotonin) 5A receptor (HTR5A). [Related pubchem assays (depositor defined):AID504326, AID504355, AID504692, AID504904, AID504905]; type: functional
# Chain of 5-hydroxytryptamine receptor 5A (P47898 whole entry): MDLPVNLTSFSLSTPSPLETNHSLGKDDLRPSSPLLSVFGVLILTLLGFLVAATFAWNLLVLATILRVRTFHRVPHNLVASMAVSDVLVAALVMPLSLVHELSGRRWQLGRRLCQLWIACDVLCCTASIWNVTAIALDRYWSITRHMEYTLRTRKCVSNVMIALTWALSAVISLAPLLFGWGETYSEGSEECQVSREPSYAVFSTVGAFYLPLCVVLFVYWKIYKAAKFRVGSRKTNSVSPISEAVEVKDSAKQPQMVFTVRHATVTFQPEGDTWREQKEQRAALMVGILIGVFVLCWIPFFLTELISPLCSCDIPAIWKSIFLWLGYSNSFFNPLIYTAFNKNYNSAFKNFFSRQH
# [3] = target: Delta-type opioid receptor (Homo sapiens, UniProt P41143); test: Counterscreen for agonists of heterodimerization of the mu 1 (OPRM1) and delta 1 (OPRD1) opioid receptors: Luminescence-based cell-based high throughput dose response assay to identify agonists of OPRD1 homodimerization. [Related pubchem assays (depositor defined):AID504326, AID504355, AID504692, AID504904, AID504905]; type: functional
# Chain of Delta-type opioid receptor (P41143 whole entry): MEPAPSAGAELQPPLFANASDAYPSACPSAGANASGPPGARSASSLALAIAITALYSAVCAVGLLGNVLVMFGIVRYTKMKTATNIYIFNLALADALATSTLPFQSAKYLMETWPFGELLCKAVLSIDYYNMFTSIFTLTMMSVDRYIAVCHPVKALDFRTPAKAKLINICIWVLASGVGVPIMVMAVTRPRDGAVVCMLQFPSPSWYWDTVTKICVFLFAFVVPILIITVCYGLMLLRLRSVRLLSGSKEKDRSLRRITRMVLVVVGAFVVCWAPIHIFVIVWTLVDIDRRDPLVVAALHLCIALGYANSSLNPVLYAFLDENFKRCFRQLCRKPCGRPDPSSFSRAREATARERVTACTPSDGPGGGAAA
# [4] = target: 72 kDa type IV collagenase (Homo sapiens, UniProt P08253); test: Dose Response validation of uHTS RPN11 inhibitor hits using a MMP-2 Fluorescence assay.; type: functional
# Chain of 72 kDa type IV collagenase (P08253 whole entry): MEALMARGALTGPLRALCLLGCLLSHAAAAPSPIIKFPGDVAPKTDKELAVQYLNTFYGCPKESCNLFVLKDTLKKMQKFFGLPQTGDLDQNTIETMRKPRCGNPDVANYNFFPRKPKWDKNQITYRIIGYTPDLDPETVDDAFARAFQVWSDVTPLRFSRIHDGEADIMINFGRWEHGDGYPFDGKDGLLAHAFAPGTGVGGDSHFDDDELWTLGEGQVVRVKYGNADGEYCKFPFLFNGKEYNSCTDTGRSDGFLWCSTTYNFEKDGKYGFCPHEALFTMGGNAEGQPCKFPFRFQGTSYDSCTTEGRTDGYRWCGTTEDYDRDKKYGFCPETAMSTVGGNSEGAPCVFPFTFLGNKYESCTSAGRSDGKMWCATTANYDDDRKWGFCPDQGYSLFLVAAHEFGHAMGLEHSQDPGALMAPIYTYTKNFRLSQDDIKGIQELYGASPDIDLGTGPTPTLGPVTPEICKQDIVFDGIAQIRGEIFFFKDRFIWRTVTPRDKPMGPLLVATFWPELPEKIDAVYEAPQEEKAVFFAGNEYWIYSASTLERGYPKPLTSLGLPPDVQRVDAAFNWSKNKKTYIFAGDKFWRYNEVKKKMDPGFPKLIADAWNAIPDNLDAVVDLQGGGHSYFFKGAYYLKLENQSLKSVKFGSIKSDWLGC
# [5] = target: Mu-type opioid receptor (Homo sapiens, UniProt P35372); test: Counterscreen for agonists of heterodimerization of the mu 1 (OPRM1) and delta 1 (OPRD1) opioid receptors: Luminescence-based cell-based high throughput dose response assay to identify agonists of OPRM1 homodimerization.; type: functional;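 further: U2OS cells expressing OPRM1 and beta-arrestin as split beta-galactosidase partners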
# Chain of Mu-type opioid receptor (P35372 whole entry): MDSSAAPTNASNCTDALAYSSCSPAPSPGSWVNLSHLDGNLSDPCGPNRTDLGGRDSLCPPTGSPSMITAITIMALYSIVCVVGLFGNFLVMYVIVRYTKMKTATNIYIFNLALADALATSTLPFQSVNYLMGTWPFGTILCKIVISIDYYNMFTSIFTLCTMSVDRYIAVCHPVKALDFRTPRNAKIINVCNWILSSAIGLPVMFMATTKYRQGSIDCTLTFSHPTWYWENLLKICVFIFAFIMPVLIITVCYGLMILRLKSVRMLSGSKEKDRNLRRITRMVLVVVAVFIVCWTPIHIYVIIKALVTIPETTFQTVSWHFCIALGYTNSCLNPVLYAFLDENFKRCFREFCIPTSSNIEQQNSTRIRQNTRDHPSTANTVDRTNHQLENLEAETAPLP
# [6] = target: 26S proteasome non-ATPase regulatory subunit 14 (Homo sapiens, UniProt O00487); test: inhibition of proteasome subunit RPN11 – biochemical, fluorescence polarization, uHTS hits, confirmation (AID 602368); type: functional
# Chain of 26S proteasome non-ATPase regulatory subunit 14 (O00487 whole entry): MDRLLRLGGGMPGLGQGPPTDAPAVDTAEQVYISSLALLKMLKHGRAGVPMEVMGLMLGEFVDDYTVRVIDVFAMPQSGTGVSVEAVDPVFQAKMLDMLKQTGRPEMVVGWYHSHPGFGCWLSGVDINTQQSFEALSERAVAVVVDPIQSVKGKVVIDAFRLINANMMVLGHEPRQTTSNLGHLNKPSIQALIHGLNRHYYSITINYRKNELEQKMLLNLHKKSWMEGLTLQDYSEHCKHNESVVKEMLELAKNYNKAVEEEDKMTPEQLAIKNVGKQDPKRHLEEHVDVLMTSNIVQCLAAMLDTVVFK
# [7] = target: T1, Apoptotic protease-activating factor 1 (Homo sapiens, UniProt O14727); type: functional
# T1 sequence (O14727 whole entry): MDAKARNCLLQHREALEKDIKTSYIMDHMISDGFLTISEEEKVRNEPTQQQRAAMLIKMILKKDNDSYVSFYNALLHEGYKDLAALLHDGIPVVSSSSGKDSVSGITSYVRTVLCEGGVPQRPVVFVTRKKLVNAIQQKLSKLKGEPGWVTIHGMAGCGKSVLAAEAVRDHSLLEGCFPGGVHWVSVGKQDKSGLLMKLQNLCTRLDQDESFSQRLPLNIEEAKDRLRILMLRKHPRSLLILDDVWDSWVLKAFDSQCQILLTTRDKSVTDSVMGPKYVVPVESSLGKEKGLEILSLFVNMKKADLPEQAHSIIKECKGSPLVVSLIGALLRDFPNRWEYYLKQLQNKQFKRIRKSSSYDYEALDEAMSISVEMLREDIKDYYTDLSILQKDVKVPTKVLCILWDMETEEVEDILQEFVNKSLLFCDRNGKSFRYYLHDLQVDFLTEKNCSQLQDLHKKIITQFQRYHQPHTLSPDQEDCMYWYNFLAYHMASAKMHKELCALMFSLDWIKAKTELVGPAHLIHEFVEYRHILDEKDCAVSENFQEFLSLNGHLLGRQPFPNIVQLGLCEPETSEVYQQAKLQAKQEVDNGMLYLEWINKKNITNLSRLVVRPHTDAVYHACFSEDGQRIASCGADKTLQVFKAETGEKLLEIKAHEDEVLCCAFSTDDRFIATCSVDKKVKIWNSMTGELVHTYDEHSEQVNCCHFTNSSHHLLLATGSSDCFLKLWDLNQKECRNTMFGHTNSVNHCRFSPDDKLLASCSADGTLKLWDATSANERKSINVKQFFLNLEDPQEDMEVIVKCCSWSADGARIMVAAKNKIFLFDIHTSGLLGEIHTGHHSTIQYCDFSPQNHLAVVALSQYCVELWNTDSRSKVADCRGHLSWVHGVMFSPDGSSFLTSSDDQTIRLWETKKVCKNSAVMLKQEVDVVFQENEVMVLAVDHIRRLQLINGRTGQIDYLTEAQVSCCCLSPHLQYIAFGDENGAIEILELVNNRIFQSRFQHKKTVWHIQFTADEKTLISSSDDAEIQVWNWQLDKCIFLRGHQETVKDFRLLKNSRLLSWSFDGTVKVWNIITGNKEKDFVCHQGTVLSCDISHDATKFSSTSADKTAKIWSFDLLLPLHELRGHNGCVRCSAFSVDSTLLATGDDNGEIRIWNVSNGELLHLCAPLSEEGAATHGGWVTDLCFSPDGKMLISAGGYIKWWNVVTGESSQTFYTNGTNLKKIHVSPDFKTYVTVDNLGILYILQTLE
# [8] = target: T2, Mannose-6-phosphate isomerase (Homo sapiens, UniProt P34949); test: human PMI inhibitors, high substrate, primary screen, biochemical, fluorescence intensity, high mannose 6-phosphate (AID 1220)
# T2 sequence (P34949 whole entry): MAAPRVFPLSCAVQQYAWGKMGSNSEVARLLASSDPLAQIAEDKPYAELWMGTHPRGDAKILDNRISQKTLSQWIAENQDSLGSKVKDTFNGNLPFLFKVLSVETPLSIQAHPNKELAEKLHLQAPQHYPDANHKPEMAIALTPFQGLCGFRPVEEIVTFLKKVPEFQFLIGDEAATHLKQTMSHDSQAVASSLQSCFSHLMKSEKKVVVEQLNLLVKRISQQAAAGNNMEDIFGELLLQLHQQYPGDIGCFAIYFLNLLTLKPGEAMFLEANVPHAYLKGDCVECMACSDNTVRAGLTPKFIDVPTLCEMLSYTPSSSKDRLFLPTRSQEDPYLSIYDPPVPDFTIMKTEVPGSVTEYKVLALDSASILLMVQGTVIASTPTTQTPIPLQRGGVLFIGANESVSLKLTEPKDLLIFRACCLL
# [9] = THP-1 cell cytotoxicity, dose response, cytotoxicity control for Vif-APOBEC3G degradation inhibitor project, THP-1 cells (AID 1117359); type: functional; details: Human immunodeficiency virus 1, THP-1
# [10] = target: Glucose-6-phosphate 1-dehydrogenase (Homo sapiens, UniProt P11413); test: human G6PD enzyme inhibitors, dose response, selectivity assay for P. falciparum G6PD inhibitor project, biochemical, fluorescence (AID 504792); type: functional
# Chain of Glucose-6-phosphate 1-dehydrogenase (P11413 whole entry): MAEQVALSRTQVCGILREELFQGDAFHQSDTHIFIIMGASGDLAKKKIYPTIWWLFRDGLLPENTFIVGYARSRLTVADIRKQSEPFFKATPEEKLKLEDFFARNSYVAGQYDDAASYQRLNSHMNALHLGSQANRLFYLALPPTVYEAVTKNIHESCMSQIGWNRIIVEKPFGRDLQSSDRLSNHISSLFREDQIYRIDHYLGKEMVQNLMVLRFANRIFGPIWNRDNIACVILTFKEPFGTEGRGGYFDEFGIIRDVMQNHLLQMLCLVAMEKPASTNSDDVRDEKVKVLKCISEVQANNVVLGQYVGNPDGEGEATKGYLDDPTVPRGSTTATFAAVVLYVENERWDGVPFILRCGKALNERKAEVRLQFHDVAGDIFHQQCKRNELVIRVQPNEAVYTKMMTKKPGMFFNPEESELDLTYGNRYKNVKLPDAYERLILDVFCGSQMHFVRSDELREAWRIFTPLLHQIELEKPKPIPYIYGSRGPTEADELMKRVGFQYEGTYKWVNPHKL
# [11] = target: T3, Protein Tat (Human immunodeficiency virus type 1 group M subtype B (isolate HXB2)(HIV-1), UniProt P04608); type: functional;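 further: tat binding to TAR RNA read out by fluorescence polarization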
# T3 sequence (P04608 whole entry): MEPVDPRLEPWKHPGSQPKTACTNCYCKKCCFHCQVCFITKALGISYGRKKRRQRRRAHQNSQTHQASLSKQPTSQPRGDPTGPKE
# [12] = system: Vero; test: cells; type: functional; details: Chlorocebus sabaeus
# [13] = target: T4, Tyrosine-protein phosphatase non-receptor type 22 (Homo sapiens, UniProt Q9Y2R2); type: functional
# T4 sequence (Q9Y2R2 whole entry): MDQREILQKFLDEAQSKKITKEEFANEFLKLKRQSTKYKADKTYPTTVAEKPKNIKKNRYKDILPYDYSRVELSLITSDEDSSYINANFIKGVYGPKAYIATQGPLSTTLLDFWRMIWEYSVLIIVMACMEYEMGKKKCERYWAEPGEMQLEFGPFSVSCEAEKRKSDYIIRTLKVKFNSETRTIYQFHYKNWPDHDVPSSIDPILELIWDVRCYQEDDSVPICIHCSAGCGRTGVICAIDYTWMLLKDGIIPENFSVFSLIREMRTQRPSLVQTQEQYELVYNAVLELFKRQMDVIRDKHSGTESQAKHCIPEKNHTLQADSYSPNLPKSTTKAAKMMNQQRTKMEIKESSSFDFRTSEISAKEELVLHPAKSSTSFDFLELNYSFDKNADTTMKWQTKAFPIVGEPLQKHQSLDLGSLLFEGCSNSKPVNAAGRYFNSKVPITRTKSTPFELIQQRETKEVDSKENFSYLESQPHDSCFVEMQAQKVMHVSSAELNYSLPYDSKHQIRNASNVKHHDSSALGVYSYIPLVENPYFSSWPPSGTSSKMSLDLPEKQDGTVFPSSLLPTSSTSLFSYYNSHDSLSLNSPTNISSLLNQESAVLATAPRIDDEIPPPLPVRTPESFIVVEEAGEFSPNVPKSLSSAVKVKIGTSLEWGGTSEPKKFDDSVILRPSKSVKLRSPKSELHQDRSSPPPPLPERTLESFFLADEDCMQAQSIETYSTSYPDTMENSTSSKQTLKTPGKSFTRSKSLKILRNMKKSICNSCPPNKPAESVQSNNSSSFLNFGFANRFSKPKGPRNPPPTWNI
# [14] = system: BJ; test: cytotoxicity toward BJ-TERT-LT-ST fibroblasts, dose response, cell-based, RAS-independent, luminescence (AID 1935); type: functional; details: Homo sapiens;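 further: BJ fibroblasts immortalized with TERT plus LT and ST oncogenes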
# [15] = target: T5, Streptokinase A (Streptococcus pyogenes serotype M1, UniProt P10520); test: S. pyogenes streptokinase expression inhibitors, potency, dose response, plasminogen activation absorbance, OD405 (AID 1914); type: functional, Streptococcus pyogenes M1 GAS;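 further: secreted streptokinase activity via plasminogen activation per viability signal from cell pellet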
# T5 sequence (P10520 whole entry): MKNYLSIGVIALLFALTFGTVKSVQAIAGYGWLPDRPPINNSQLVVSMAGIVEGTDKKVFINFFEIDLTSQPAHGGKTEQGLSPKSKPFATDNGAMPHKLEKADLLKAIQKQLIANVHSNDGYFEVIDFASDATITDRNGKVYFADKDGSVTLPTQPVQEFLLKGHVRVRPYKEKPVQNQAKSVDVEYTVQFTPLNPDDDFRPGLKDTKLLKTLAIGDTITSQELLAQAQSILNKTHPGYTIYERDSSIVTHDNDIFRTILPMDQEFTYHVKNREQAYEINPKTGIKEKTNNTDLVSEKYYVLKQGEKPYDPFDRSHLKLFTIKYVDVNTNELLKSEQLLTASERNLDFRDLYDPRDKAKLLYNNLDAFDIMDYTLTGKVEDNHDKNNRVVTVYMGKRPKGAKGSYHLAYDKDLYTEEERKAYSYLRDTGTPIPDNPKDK
# [16] = system: BJ; test: cells; type: functional, cell-based; details: Homo sapiens
# [17] = target: T4, Tyrosine-protein phosphatase non-receptor type 22; type: functional; remark: listed apart in the source
# [18] = system: Streptococcus sp. 'group A'; test: growth inhibition of control SK(-) GAS strain, dose response, counter-screen for streptokinase expression inhibitor project, luminescence, kanamycin, BacTiterGlo, confirmation (AID 1900); type: functional, organism-based
# [19] = cytotoxicity toward DRD oncogenic fibroblasts, dose response, cell-based, non-viral oncogenic, luminescence (AID 1934); type: functional; details: Homo sapiens
# [20] = target: T6, Tyrosine-protein phosphatase non-receptor type 7 (Homo sapiens, UniProt P35236); type: functional
# T6 sequence (P35236 whole entry): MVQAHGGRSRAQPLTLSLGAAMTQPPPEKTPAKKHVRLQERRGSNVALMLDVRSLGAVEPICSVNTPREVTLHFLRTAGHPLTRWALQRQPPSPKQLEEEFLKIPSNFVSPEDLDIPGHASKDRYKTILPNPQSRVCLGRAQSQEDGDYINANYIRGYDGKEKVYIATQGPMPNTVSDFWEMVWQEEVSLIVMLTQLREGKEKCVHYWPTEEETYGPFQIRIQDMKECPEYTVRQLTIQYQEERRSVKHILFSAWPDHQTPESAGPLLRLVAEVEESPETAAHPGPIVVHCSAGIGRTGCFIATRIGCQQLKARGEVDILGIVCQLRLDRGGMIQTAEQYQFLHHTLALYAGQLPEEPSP
# [21] = system: Streptococcus; test: Group A Streptococcus viability loss, dose response, counter-screen for streptokinase expression inhibitor project, luminescence, BacTiterGlo (AID 1915); type: functional, organism-based;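 further: potency for reduction of bacterial viability or growth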
# [22] = system: BJ; test: cytotoxicity toward BJ-TERT fibroblasts, dose response, cell-based, RAS-independent, luminescence (AID 1933); type: functional; details: Homo sapiens
compound,measurement,setting,value
Cc1cc(N2CCN(c3ccc([N+](=O)[O-])c4cccnc34)CC2)c2ccccc2n1,IC50,[1],27.7 µM (active)
same,EC50,[2],> 92.5 µM (inactive)
same,EC50,[3],> 92.5 µM (inactive)
same,IC50,[4],> 100 µM (inactive)
same,EC50,[5],> 92.5 µM (inactive)
same,IC50,[6],27.7 µM (active)
same,IC50,[7],34 µM (active)
CCOc1ccc(CNc2ccc(N3CCCC3)cc2)cc1,IC50,[8],> 50 µM (not active)
same,CC50,[9],> 40 µM (active)
same,IC50,[10],> 80 µM (inactive)
same,IC50,[11],75.3 µM (inconclusive)
CC1[C@H]2Cc3ccc(O)cc3[C@]1(C)CCN2C (stereo not given in full),EC50,[2],> 92.4 µM (inactive)
same,EC50,[3],> 92.4 µM (inactive)
same,EC50,[5],> 92.4 µM (inactive)
O=C(N/N=C/c1ccccn1)c1ccc(Cl)c(Cl)c1,CC50,[12],> 25 µM (active)
same,IC50,[13],> 79.4 µM (inactive)
same,EC50,[14],> 150 µM (not active)
same,EC50,[15],> 150 µM (not active)
same,EC50,[16],> 150 µM (not active)
same,IC50,[17],> 79.4 µM (inactive)
same,EC50,[18],6.21 µM (active)
same,EC50,[19],> 150 µM (not active)
same,IC50,[20],> 79.4 µM (inactive)
same,EC50,[21],22.9 µM (active)
same,EC50,[22],21.6 µM (active)
